Legend:
GPR6 = target: T1, GPR6 (Homo sapiens, UniProt P46095); test: GPR6 antagonist functional cAMP assay (LANCE Ultra cAMP TR-FRET, CHO cells stably expressing GPR6); format: cell-based
T1 construct: expressed in transfected cells; host or cells: CHO cells
In short: (§1)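 We measure cAMP by TR-FRET (665 nm) in cells held in glucose-containing Krebs-Ringer buffer with BSA and a PDE inhibitor, after a 45 min, 37 °C compound incubation. IC50s derive from a four-parameter logistic fit.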

GPR3 = target: T2, GPR3 (Homo sapiens, UniProt P46089); test: GPR3 antagonist functional cAMP assay (LANCE Ultra cAMP TR-FRET, CHO cells stably expressing GPR3); format: cell-based
T2 construct: expressed in transfected cells; host or cells: CHO cells
T2 sequence (P46089 whole entry, species assumed): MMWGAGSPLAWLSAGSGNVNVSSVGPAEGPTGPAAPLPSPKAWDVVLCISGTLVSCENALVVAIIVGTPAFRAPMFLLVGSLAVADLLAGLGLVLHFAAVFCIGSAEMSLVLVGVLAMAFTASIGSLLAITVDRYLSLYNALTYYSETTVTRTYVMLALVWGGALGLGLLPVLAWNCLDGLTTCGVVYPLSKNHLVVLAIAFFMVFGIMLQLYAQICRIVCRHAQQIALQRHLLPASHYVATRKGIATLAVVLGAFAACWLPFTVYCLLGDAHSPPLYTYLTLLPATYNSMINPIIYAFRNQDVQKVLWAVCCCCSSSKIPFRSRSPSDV
In short: as §1

[1] = CHO cells stably expressing GPR6, cAMP assay (Example 24)
[2] = CHO cells stably expressing GPR3, cAMP assay (Example 24)
[3] = procedure as described in Example 24

T1 sequence (P46095 whole entry): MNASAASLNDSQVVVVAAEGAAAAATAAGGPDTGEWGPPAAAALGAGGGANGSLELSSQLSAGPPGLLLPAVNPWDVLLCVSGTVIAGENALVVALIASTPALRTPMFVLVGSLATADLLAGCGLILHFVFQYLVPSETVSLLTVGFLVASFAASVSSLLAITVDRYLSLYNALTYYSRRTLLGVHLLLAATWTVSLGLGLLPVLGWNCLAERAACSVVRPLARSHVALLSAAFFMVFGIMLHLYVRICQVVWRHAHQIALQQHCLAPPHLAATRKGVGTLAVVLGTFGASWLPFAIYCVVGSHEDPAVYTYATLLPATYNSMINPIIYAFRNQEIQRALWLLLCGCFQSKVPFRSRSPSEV

| IC50 (GPR6; procedure of Example 24) | IC50 (GPR3; procedure of Example 24) | IC50 (GPR6; [1]) | IC50 (GPR3; [2]) | Compound | other results |
| --- | --- | --- | --- | --- | --- |
| < 100 nM | 1000 to 30000 nM | – | – | CC(=O)N1CCc2nc(N3CCN(Cc4cc(Cl)ccc4F)CC3)c(-c3cnn(C)c3)nc2C1 [Compound 349, 1-(2-{4-[(5-chloro-2-fluorophenyl)methyl]piperazin-1-yl}-3-(1-methyl-1H-pyrazol-4-yl)-5H,6H,7H,8H-pyrido[3,4-b]pyrazin-6-yl)ethan-1-one] | – |
| – | – | < 100 nM | 100 to 1000 nM | CC(=O)N1CCc2nc(N3CCC(Oc4ccc(F)cc4F)CC3)c(-c3cccc(N)n3)nc2C1 [Compound 168, 1-[3-(6-aminopyridin-2-yl)-2-[4-(2,4-difluorophenoxy)piperidin-1-yl]-5H,6H,7H,8H-pyrido[3,4-b]pyrazin-6-yl]ethan-1-one] | – |
| 100 to 1000 nM | 1000 to 30000 nM | – | – | CC(C)(O)C(C)(O)c1cc2nc(N3CCN(Cc4ccccc4F)CC3)c(-c3cnn(C(F)F)c3)nc2cn1 (stereo not drawn) [Compound 634, 2-{3-[1-(difluoromethyl)-4-pyrazolyl]-2-{4-[(o-fluorophenyl)methyl]-1-piperazinyl}-1,4,6-triaza-7-naphthyl}-3-methyl-2,3-butanediol] | – |
| 100 to 1000 nM | 1000 to 30000 nM | – | – | CC(C)(O)[C@@H](O)c1cc2nc(N3CCN(Cc4ccccc4F)CC3)c(-c3cnn(C4CC4)c3)nc2cn1 (single isomer, unassigned) [Compound 742] | – |
| – | – | 100 to 1000 nM | 1000 to 30000 nM | COCC1CC1c1nc2c(nc1N1CCC(Oc3ccc(F)cc3F)CC1)CCN(C(C)=O)C2 (stereo not drawn) [Compound 463, 1-(2-(4-(2,4-difluorophenoxy)piperidin-1-yl)-3-(2-(methoxymethyl)cyclopropyl)-7,8-dihydropyrido[3,4-b]pyrazin-6(5H)-yl)ethan-1-one] | – |
| – | – | 1000 to 30000 nM | 1000 to 30000 nM | Cn1cc(-c2nc3cnc(O)cc3nc2N2CCC(Oc3ccc(F)cc3F)CC2)cn1 [Compound 395, 2-(4-(2,4-difluorophenoxy)piperidin-1-yl)-3-(1-methyl-1H-pyrazol-4-yl)pyrido[3,4-b]pyrazin-7-ol] | – |
| 100 to 1000 nM | 1000 to 30000 nM | – | – | CC(C)(O)[C@H](O)c1cc2nc(N3CCN(Cc4ccccc4F)CC3)c(-c3cnn(C(F)F)c3)nc2cn1 (single isomer, unassigned) [Compound 612] | – |
| – | – | 100 to 1000 nM | 1000 to 30000 nM | COc1ccc(-c2nc3c(nc2N2CCC(Oc4ccc(F)cc4F)CC2)CCN(C(C)=O)C3)cn1 [Compound 126, 1-{2-[4-(2,4-difluorophenoxy)piperidin-1-yl]-3-(6-methoxypyridin-3-yl)-5H,6H,7H,8H-pyrido[3,4-b]pyrazin-6-yl}ethan-1-one] | – |
| – | – | 100 to 1000 nM | 1000 to 30000 nM | COCCn1cc(-c2nc3c(nc2N2CCC(Oc4ccc(F)cc4F)CC2)CCN(C(C)=O)C3)cn1 [Compound 74, 1-{2-[4-(2,4-difluorophenoxy)piperidin-1-yl]-3-[1-(2-methoxyethyl)-1H-pyrazol-4-yl]-5H,6H,7H,8H-pyrido[3,4-b]pyrazin-6-yl}ethan-1-one] | – |
| < 100 nM | 1000 to 30000 nM | – | – | Cn1cc(-c2nc3cc([C@H](O)C(C)(C)O)ncc3nc2N2CCN(Cc3ccc(F)cc3F)CC2)cn1 (stereo in doubt) [Compound 370, (Rel-S)-1-(3-(4-(2,4-difluorobenzyl)piperazin-1-yl)-2-(1-methyl-1H-pyrazol-4-yl)pyrido[3,4-b]pyrazin-7-yl)-2-methylpropane-1,2-diol] | – |
| ≥ 30000 nM | ≥ 30000 nM | – | – | Cn1cc(-c2nc3cnccc3nc2N2CCc3c(cnn3-c3ccc(F)cc3F)C2)cn1 [Compound 788, 1-(2,4-difluorophenyl)-5-[3-(1-methyl-4-pyrazolyl)-1,4,6-triaza-2-naphthyl]-4,5,6,7-tetrahydro-1H-1,2,5-triazaindene] | – |
| – | – | 100 to 1000 nM | 100 to 1000 nM | Clc1ccc(Cl)c(CN2CCN(c3nc4cnccc4nc3-c3ncc[nH]3)CC2)c1 [Compound 64, 1-[(2,5-dichlorophenyl)methyl]-4-[2-(1H-imidazol-2-yl)pyrido[3,4-b]pyrazin-3-yl]piperazine] | – |
| – | – | < 100 nM | 1000 to 30000 nM | CN(C)C(=O)N1CCc2nc(N3CCC(Oc4ccc(F)cc4F)CC3)c(-c3cn[nH]c3)nc2C1 [Compound 187, 2-[4-(2,4-difluorophenoxy)piperidin-1-yl]-N,N-dimethyl-3-(1H-pyrazol-4-yl)-5H,6H,7H,8H-pyrido[3,4-b]pyrazine-6-carboxamide] | – |
| – | – | – | – | Cn1cc(-c2nc3cc(C(O)C(C)(C)O)ncc3nc2N2CCC(Oc3ccc(F)cc3F)CC2)cn1 (single isomer, unassigned) [Compound 562] | IC50 (GPR6; CHO cells stably expressing GPR6, cAMP assay): < 100 nM; IC50 (GPR3; CHO cells stably expressing GPR3, cAMP assay): 100 to 1000 nM |
| < 100 nM | 1000 to 30000 nM | – | – | CC(C)(O)[C@H](O)c1cc2nc(N3CCC(=Cc4ccc(F)cc4F)CC3)c(-c3cnn(CF)c3)nc2cn1 (single isomer, unassigned) [Compound 784] | – |
| – | – | 100 to 1000 nM | 1000 to 30000 nM | CCN1CCc2nc(N3CCC(Oc4ccc(F)cc4F)CC3)c(-c3cn[nH]c3)nc2C1 [Compound 170, 4-(2,4-difluorophenoxy)-1-[6-ethyl-3-(1H-pyrazol-4-yl)-5H,6H,7H,8H-pyrido[3,4-b]pyrazin-2-yl]piperidine] | – |
| – | – | 1000 to 30000 nM | 1000 to 30000 nM | CC(=O)N1CCc2nc(N3CCN(Cc4cccc(F)c4)CC3)c(-c3cnn(C)c3)nc2C1 [Compound 256, 1-(2-{4-[(3-fluorophenyl)methyl]piperazin-1-yl}-3-(1-methyl-1H-pyrazol-4-yl)-5H,6H,7H,8H-pyrido[3,4-b]pyrazin-6-yl)ethan-1-one] | – |
| 1000 to 30000 nM | 1000 to 30000 nM | – | – | CC(C)(O)C(O)c1cncc2nc(-c3cnn(C(F)F)c3)c(N3CCN(Cc4ccc(F)cc4F)CC3)nc12 (stereo not drawn) [Compound 679, 1-{3-[1-(difluoromethyl)-4-pyrazolyl]-2-{4-[(2,4-difluorophenyl)methyl]-1-piperazinyl}-1,4,6-triaza-8-naphthyl}-2-methyl-1,2-propanediol] | – |
| 100 to 1000 nM | 1000 to 30000 nM | – | – | COc1ccc(CN2CCN(c3nc4c(nc3-c3cnn(C)c3)CN(C(C)=O)CC4)CC2)c(F)c1 [Compound 316, 1-(2-{4-[(2-fluoro-4-methoxyphenyl)methyl]piperazin-1-yl}-3-(1-methyl-1H-pyrazol-4-yl)-5H,6H,7H,8H-pyrido[3,4-b]pyrazin-6-yl)ethan-1-one] | – |
| – | – | 1000 to 30000 nM | 1000 to 30000 nM | CC(=O)N1CCc2nc(N3CCC(Oc4ccc(F)cc4F)CC3)c(-c3cnn(CCO)c3)nc2C1 [Compound 88, 1-{2-[4-(2,4-difluorophenoxy)piperidin-1-yl]-3-[1-(2-hydroxyethyl)-1H-pyrazol-4-yl]-5H,6H,7H,8H-pyrido[3,4-b]pyrazin-6-yl}ethan-1-one] | – |
| – | – | 1000 to 30000 nM | 1000 to 30000 nM | Fc1ccc(OC2CCN(c3nc4ccncc4nc3-c3ccn[nH]3)CC2)c(F)c1 [Compound 85, 4-(2,4-difluorophenoxy)-1-[3-(1H-pyrazol-5-yl)pyrido[3,4-b]pyrazin-2-yl]piperidine] | – |
| – | – | – | – | CC(=O)N1CCc2nc(N3CCC(Oc4ccc(F)cc4F)CC3)c(-c3cn[nH]c3)nc2C1 [Compound 32, 1-(2-(4-(2,4-difluorophenoxy)piperidin-1-yl)-3-(1H-pyrazol-4-yl)-7,8-dihydropyrido[3,4-b]pyrazin-6(5H)-yl)ethan-1-one] | IC50 (GPR6; [3]): 100 to 1000 nM; IC50 (GPR3; [3]): 1000 to 30000 nM |
| – | – | 1000 to 30000 nM | ≥ 30000 nM | Cn1cc(-c2nc3cnccc3nc2N2CCN(C(=O)c3ccc(F)cc3F)CC2)cn1 [Compound 128, (2,4-difluorophenyl)(4-(3-(1-methyl-1H-pyrazol-4-yl)pyrido[3,4-b]pyrazin-2-yl)piperazin-1-yl)methanone] | – |
| 100 to 1000 nM | 1000 to 30000 nM | – | – | CC(C)(O)[C@](C)(O)c1cc2nc(-c3cnn(C4CC4)c3)c(N3CCN(Cc4ccc(F)cc4F)CC3)nc2cn1 [Compound 683, (R)-2-[2-(1-cyclopropyl-4-pyrazolyl)-3-{4-[(2,4-difluorophenyl)methyl]-1-piperazinyl}-1,4,6-triaza-7-naphthyl]-3-methyl-2,3-butanediol] | – |
| 1000 to 30000 nM | 1000 to 30000 nM | – | – | CC(=O)N1CCc2nc(N3CCN(Cc4ccccc4)CC3)c(-c3cnn(C)c3)nc2C1 [Compound 280, 1-[2-(4-benzylpiperazin-1-yl)-3-(1-methyl-1H-pyrazol-4-yl)-5H,6H,7H,8H-pyrido[3,4-b]pyrazin-6-yl]ethan-1-one] | – |
| – | – | ≥ 30000 nM | ≥ 30000 nM | CC(=O)N1CCc2nc(N3CCC(Oc4ccc(F)cc4F)CC3)c(-c3c(C)n[nH]c3C)nc2C1 [Compound 98, 1-{2-[4-(2,4-difluorophenoxy)piperidin-1-yl]-3-(3,5-dimethyl-1H-pyrazol-4-yl)-5H,6H,7H,8H-pyrido[3,4-b]pyrazin-6-yl}ethan-1-one] | – |
| – | – | < 100 nM | 1000 to 30000 nM | COCC(=O)N1CCc2nc(N3CCC(Oc4ccc(F)cc4F)CC3)c(-c3cn[nH]c3)nc2C1 [Compound 148, 1-{2-[4-(2,4-difluorophenoxy)piperidin-1-yl]-3-(1H-pyrazol-4-yl)-5H,6H,7H,8H-pyrido[3,4-b]pyrazin-6-yl}-2-methoxyethan-1-one] | – |
| < 100 nM | 100 to 1000 nM | – | – | CC(C)(O)[C@H](O)c1cc2nc(N3CCC(Cc4ccc(F)cc4F)CC3)c(-c3cnn(CF)c3)nc2cn1 (single isomer, unassigned) [Compound 728] | – |
| – | – | 100 to 1000 nM | 1000 to 30000 nM | CC(=O)N1Cc2nc(-c3cnn(C)c3)c(N3CCC(Oc4ccc(F)cc4F)CC3)nc2CC1C (single isomer, unassigned) [Compound 445] | – |
| – | – | 1000 to 30000 nM | 1000 to 30000 nM | CC(=O)N1CCc2nc(N3CCC(Oc4ccc(F)c(F)c4)CC3)c(-c3cnn(C)c3)nc2C1 [Compound 453, 1-{2-[4-(3,4-difluorophenoxy)piperidin-1-yl]-3-(1-methyl-1H-pyrazol-4-yl)-5H,6H,7H,8H-pyrido[3,4-b]pyrazin-6-yl}ethan-1-one] | – |

Reference: patent US20260042755A1, “GPR6 INVERSE AGONISTS” (MapLight Therapeutics, Inc., priority 2022, published 2026)
